ChEMBL document CHEMBL3046100, “Synthesis and anti-congestive heart failure activity of novel levosimendan analogues” (2011)

How the values were obtained:
Assay type in all cases: functional, Artery
Rattus norvegicus [1] = assay: Anticongestive heart failure activity in Rattus norvegicus (rat) assessed as blood pressure at 50 mg/kg, intraduodenal measured at 30 min by tracheal intubation method (reference value: 88 +/- 3 mmHg)
Rattus norvegicus [2] = assay: Anticongestive heart failure activity in Rattus norvegicus (rat) assessed as blood pressure at 50 mg/kg, intraduodenal measured at 25 min by tracheal intubation method (reference value: 79 +/- 4 mmHg)
Rattus norvegicus [3] = assay: Anticongestive heart failure activity in Rattus norvegicus (rat) assessed as blood pressure at 50 mg/kg, intraduodenal measured at 20 min by tracheal intubation method (reference value: 81 +/- 4 mmHg)
Rattus norvegicus [4] = assay: Anticongestive heart failure activity in Rattus norvegicus (rat) assessed as blood pressure at 50 mg/kg, intraduodenal measured at 15 min by tracheal intubation method (reference value: 86 +/- 3 mmHg)
Rattus norvegicus [5] = assay: Anticongestive heart failure activity in Rattus norvegicus (rat) assessed as blood pressure at 50 mg/kg, intraduodenal measured at 10 min by tracheal intubation method (reference value: 95 +/- 3 mmHg)
Rattus norvegicus [6] = assay: Anticongestive heart failure activity in Rattus norvegicus (rat) assessed as blood pressure at 50 mg/kg, intraduodenal measured at 5 min by tracheal intubation method (reference value: 97 +/- 3 mmHg)

`C[C@@H]1CC(=O)NN=C1c1ccc(/N=C/c2ccc([N+](=O)[O-])cc2)cc1` showed an Activity (Rattus norvegicus [1]) of 29 mmHg, an Activity (Rattus norvegicus [2]) of 28 mmHg and an Activity (Rattus norvegicus [3]) of 29 mmHg. For the same molecule, the Activity (Rattus norvegicus [4]) was 31 mmHg, the Activity (Rattus norvegicus [5]) was 35 mmHg and the Activity (Rattus norvegicus [6]) was 56 mmHg.

Molecule `C[C@@H]1CC(=O)NN=C1c1ccc(/N=C/c2ccc(O)c(O)c2)cc1` has an Activity (Rattus norvegicus [1]) of 53 mmHg, an Activity (Rattus norvegicus [2]) of 53 mmHg and an Activity (Rattus norvegicus [3]) of 53 mmHg. It also gave an Activity (Rattus norvegicus [4]) of 53 mmHg, an Activity (Rattus norvegicus [5]) of 63 mmHg and an Activity (Rattus norvegicus [6]) of 77 mmHg.

`C[C@@H]1CC(=O)NN=C1c1ccc(/N=C/c2ccco2)cc1` showed an Activity (Rattus norvegicus [1]) of 24 mmHg, an Activity (Rattus norvegicus [2]) of 23 mmHg and an Activity (Rattus norvegicus [3]) of 25 mmHg. For the same molecule, the Activity (Rattus norvegicus [4]) was 25 mmHg, the Activity (Rattus norvegicus [5]) was 30 mmHg and the Activity (Rattus norvegicus [6]) was 45 mmHg.

With `C[C@@H]1CC(=O)NN=C1c1ccc(/N=C/c2ccccc2Cl)cc1` the Activity (Rattus norvegicus [1]) was 32 mmHg, the Activity (Rattus norvegicus [2]) was 34 mmHg and the Activity (Rattus norvegicus [3]) was 34 mmHg. For the same molecule, the Activity (Rattus norvegicus [4]) was 55 mmHg, the Activity (Rattus norvegicus [5]) was 68 mmHg and the Activity (Rattus norvegicus [6]) was 81 mmHg.

Work on `C[C@@H]1CC(=O)NN=C1c1ccc(/N=C/c2ccccc2O)cc1` yielded an Activity (Rattus norvegicus [1]) of 26 mmHg, an Activity (Rattus norvegicus [2]) of 26 mmHg and an Activity (Rattus norvegicus [3]) of 26 mmHg. For the same molecule, the Activity (Rattus norvegicus [4]) was 28 mmHg, the Activity (Rattus norvegicus [5]) was 28 mmHg and the Activity (Rattus norvegicus [6]) was 55 mmHg.

`C[C@@H]1CC(=O)NN=C1c1ccc(/N=C/c2cccc([N+](=O)[O-])c2)cc1` gave an Activity (Rattus norvegicus [1]) of 67 mmHg, an Activity (Rattus norvegicus [2]) of 67 mmHg and an Activity (Rattus norvegicus [3]) of 68 mmHg. The Activity (Rattus norvegicus [4]) was 69 mmHg, the Activity (Rattus norvegicus [5]) was 71 mmHg and the Activity (Rattus norvegicus [6]) was 77 mmHg.

With `COc1cc(/C=N/c2ccc(C3=NNC(=O)C[C@H]3C)cc2)cc(OC)c1OC` the Activity (Rattus norvegicus [1]) was 27 mmHg, the Activity (Rattus norvegicus [2]) was 27 mmHg and the Activity (Rattus norvegicus [3]) was 28 mmHg. It also gave an Activity (Rattus norvegicus [4]) of 37 mmHg, an Activity (Rattus norvegicus [5]) of 46 mmHg and an Activity (Rattus norvegicus [6]) of 77 mmHg.

`C[C@@H]1CC(=O)NN=C1c1ccc(/N=C/c2ccc(Cl)c(Cl)c2)cc1` showed an Activity (Rattus norvegicus [1]) of 25 mmHg, an Activity (Rattus norvegicus [2]) of 25 mmHg and an Activity (Rattus norvegicus [3]) of 24 mmHg. For the same molecule, the Activity (Rattus norvegicus [4]) was 25 mmHg, the Activity (Rattus norvegicus [5]) was 33 mmHg and the Activity (Rattus norvegicus [6]) was 52 mmHg.

`C[C@@H]1CC(=O)NN=C1c1ccc(/N=C/c2ccccn2)cc1` showed an Activity (Rattus norvegicus [1]) of 29 mmHg, an Activity (Rattus norvegicus [2]) of 29 mmHg and an Activity (Rattus norvegicus [3]) of 30 mmHg. It also gave an Activity (Rattus norvegicus [4]) of 30 mmHg, an Activity (Rattus norvegicus [5]) of 39 mmHg and an Activity (Rattus norvegicus [6]) of 52 mmHg.

`C[C@@H]1CC(=O)NN=C1c1ccc(NN=C(C#N)C#N)cc1` [LEVOSIMENDAN] gave an Activity (Rattus norvegicus [1]) of 31 mmHg, an Activity (Rattus norvegicus [2]) of 34 mmHg and an Activity (Rattus norvegicus [3]) of 36 mmHg. The Activity (Rattus norvegicus [4]) was 34 mmHg, the Activity (Rattus norvegicus [5]) was 39 mmHg and the Activity (Rattus norvegicus [6]) was 51 mmHg.

In the case of `C[C@@H]1CC(=O)NN=C1c1ccc(/N=C/c2ccc(O)cc2)cc1`, the Activity (Rattus norvegicus [1]) is reported as 30 mmHg, the Activity (Rattus norvegicus [2]) is reported as 29 mmHg and the Activity (Rattus norvegicus [3]) is reported as 30 mmHg. The Activity (Rattus norvegicus [4]) was 32 mmHg, the Activity (Rattus norvegicus [5]) was 44 mmHg and the Activity (Rattus norvegicus [6]) was 80 mmHg.
